The nature of one data set: clinical. Particulars: human, in vivo. The text has this:
For in vitro or in vivo studies, the effect amount of Compounds A, B, C, D, E, or ruxolinitib may be adjusted according to the experimental condition. Similarly, the effect amount of Compounds D1, D2, D3, D4, D5, D6, D7, D8, D9, E1, E2, E3, E4, E5, E6, E7, E8, E9, or F, may be adjusted according to the experimental condition for in vitro or in vivo studies. For example, compounds may be used in the amount of 0.001, 0.002, 0.003, 0.004, 0.005, 0.006, 0.007, 0.008, 0.009, 0.01, 0.02, 0.03, 0.04, 0.05, 0.06, 0.07, 0.08, 0.09, 0.1, 0.2, 0.3, 0.4, 0.5, 0.6, 0.7, 0.8, 0.9, 1.0, 1.5, 2.0, 2.5, 3.0, 3.5, 4.0, 5.0, 6.0, 7.0, 8.0, 9.0, or 10.0 μM. In some studies, the in vitro doses of the compounds may be calculated to correspond to the clinical doses of the compounds. The calculation may consider various factors, such as protein binding and plasma concentration. […] It is understood that the in vitro doses may differ, depend on the assay condition and other calculation factors, and that the clinical doses may differ depend on the disease indication and the patient condition.
(§1) In this study, PBMCs were isolated from the whole blood from five MF patients receiving chronic ruxolitinib treatment (rux 1-rux 5). The cells were treated with either vehicle, ruxolitinib, and/or Compound B for 2 hours then stimulated with TPO (50 ng/mL) for 10 minutes. Ruxolitinib at the dose of 1 or 20 nM and Compound B at the dose of 45, 200, or 700 nM were used.
Next, Pfeiffer cells were treated with IL6 (0 or 3 ng/mL), Compound A (0, 136, 272, or 695 nM), and/or Compound B (0, 74, 200, or 421 nM) (n=4 per group) for 96 hours. The doses in this assay may correspond to those used in a clinical setting. […] In addition, the in-vitro dose of 136 nM Compound A may correspond to the potential Caverage detected in patients receiving Compound A at 300 mg once a day.

Another data set has as its system Pfeiffer cells. Kind of data set: CellTiter-Glo cell viability of Pfeiffer cells with IL6. In kind it is cell-based. Conditions: Homo sapiens, 96 h, IL6 3 ng/mL, n=4, read-out: percentage of viable Pfeiffer cells, AVG. On the procedure:
Next, Pfeiffer cells were treated with IL6 (0 or 3 ng/mL), Compound A (0, 136, 272, or 695 nM), and/or Compound B (0, 74, 200, or 421 nM) (n=4 per group) for 96 hours.
Cellular viability was determined using the CellTiter-Glo Luminescent Cell Viability Assay (Promega). The percentage of viable cells was normalized to the groups that were not treated with Compound A or Compound B, and standard deviation was calculated.
(In general: ATP-based viability assays read luminescence as a measure of living cells.)

The test system of another data set is p-AKT Ser473. Kind of data set: flow cytometry of AKT phosphorylation in CD34+ progenitor cells from MF patients. The data set is classed as cell-based, human. Particulars: 2 h, MF progenitor cells. As to the method:
(§2) In this example, PBMCs were isolated from whole blood of myelofibrosis (MF) patients who had not received treatments (i.e. naïve patients) or received ruxolitinib (i.e. rux-treated patients). The cells were treated with 0.02, 0.2, or 2.0 μM of Compound B or vehicle (0.1% DMSO in 0.1% FBS/RPMI) for 2 hours at 37° C. The cells were then fixed, permeabilized, and stained for FACS analysis. Antibodies specific to p-AKT Ser473 and pS6RP Ser235/236 were used to detect AKT phosphorylation (p-AKT) and S6RP phosphorylation (p-S6RP) in CD34^+/CD3^−/CD14^−/CD19/CD66^− (BD Biosciences) gated cells using flow cytometry. The percentage of basal (i.e. untreated with TPO) AKT and S6RP phosphorylation were normalized to vehicle control (i.e. “no TPO” values shown in Table 2). A two-tailed paired t-test (GraphPad Prism) was used to calculate p-values. Values of p<0.05 were considered significant.
(§3) Also, PBMC cells were treated with Compound B and with TPO as described above. The percentage of TPO-activated AKT and S6RP phosphorylation were normalized to those of TPO-treated vehicle. […] Also, the inhibition to PI3K signaling was dose-dependent to Compound B.
(§4) Similar studies were conducted with PI3K inhibitors Compounds C and D. PBMC from MF patients had received ruxolitinib (rux) and MF patient had received Compound A. The cells were treated with Compounds C or D at 0, 20.0, 200.0, 2000.0 nM for 2 hours at 37° C. Cells were treated with TPO for 10 minutes. The percentage of basal p-AKT and p-S6RP levels were normalized to vehicle control and those of TPO-treated were normalized to TPO-treated vehicle control. The PI3K inhibitors Compounds C and D had the chemical names of (S)-2-(1-((9H-purin-6-yl)amino)ethyl)-6-fluoro-3-phenylquinazolin-4(3H)-one and (S)-2,4-diamino-6-(((5-chloro-8-fluoro-4-oxo-3-(pyridine-3-yl)-3,4-dihydroquinazolin-2-yl)(cyclopropyl)methyl)amino)pyrimidine-5-carbonitrile, respectively.
(Flow cytometry measures light scatter and fluorescence of single cells or particles in a stream.)

Another data set has as its system pS6RP Ser235/236. Kind of data set: flow cytometry of S6RP phosphorylation in CD34+ progenitor cells from MF patients. In kind it is cell-based, human. Conditions: 2 h, MF progenitor cells. On the procedure:
as §2, §3, §4

Another data set deals with p-S6RP. Kind of data set: flow cytometry of p-S6RP in TPO-stimulated CD34+ cells from MF patients on chronic ruxolitinib (Example 8). Conditions: for percentage of the p-S6RP levels: 2 h, then TPO 50 ng/mL, one value per patient, TPO vehicle = 100. In kind it is cell-based, human. On the procedure:
as §1
(§5) The treated cells were then fixed, permeabilized and stained for FACS analysis using FACSCalibur analyzed using BD FACSDiva software.

Another data set concerns p-STAT5. Kind of data set: flow cytometry of p-STAT5 in TPO-stimulated CD34+ cells from MF patients on chronic ruxolitinib (Example 8). In kind it is cell-based, human. Conditions: 2 h, then TPO 50 ng/mL, one value per patient, TPO vehicle = 100. As to the method:
as §1, §5

In another data set the test system is pSTAT3 (Tyr705). As to the kind of experiment: Western blot of pSTAT3 in IL6-stimulated Pfeiffer cells. In kind it is cell-based. Conditions: vs 0 ng/mL IL6, normalized to total STAT3, n=1. On the procedure: Pfeiffer cells were stimulated for 4 hours with 0, 1, 3, or 10 ng/mL of interleukin 6 (IL6) (n=1 per group) to activate STAT3 (i.e. increase the levels of pSTAT3). The cells were harvested, lysed and analyzed by Western blot. Antibodies specific for pSTAT3 (Tyr705) and total STAT3 were used to detect the levels of pSTAT3 and total STAT3, respectively. Raw pSTAT3 levels were quantified using densitometry software (Image Studio) and normalized to total STAT3 levels.
(A western blot detects proteins with antibodies after separation by electrophoresis.)

The mark [1] stands for this setting: 20 nM, Basal, Compound A-treated Cells, vehicle = 100.
[2] abbreviates: 20 nM, Basal, Rux-treated Cells, vehicle = 100.
Where [3] appears, read: 20 nM, TPO 10 min, Compound A-treated Cells, TPO-treated vehicle = 100.
The mark [4] stands for this setting: 20 nM, TPO 10 min, Rux-treated Cells, TPO-treated vehicle = 100.
The mark [5] stands for this setting: 200 nM, Basal, Compound A-treated Cells, vehicle = 100.
Where [6] appears, read: 200 nM, Basal, Rux-treated Cells, vehicle = 100.
[7] abbreviates: 200 nM, TPO 10 min, Compound A-treated Cells, TPO-treated vehicle = 100.
The mark [8] stands for this setting: 200 nM, TPO 10 min, Rux-treated Cells, TPO-treated vehicle = 100.
[9] abbreviates: 2000 nM, Basal, Compound A-treated Cells, vehicle = 100.
Where [10] appears, read: 2000 nM, Basal, Rux-treated Cells, vehicle = 100.
[11] abbreviates: 2000 nM, TPO 10 min, Compound A-treated Cells, TPO-treated vehicle = 100.
[12] abbreviates: 2000 nM, TPO 10 min, Rux-treated Cells, TPO-treated vehicle = 100.

Values joined by “and” are separate entries in the source; they are usually repeats but may differ in a detail not shown here. Equal values may be shown once.

Take `N#CCNC(=O)c1ccc(-c2ccnc(Nc3ccc(N4CCOCC4)cc3)n2)cc1` [Compound A, N-(cyanomethyl)-4-[2-(4-morpholinoanilino)pyrimidin-4-yl]benzamide]: the Cmax in “clinical” (300 mg) came to 695 nM. Besides, in the data set with Pfeiffer cells (136 nM Compound A), the viability at 0.136 µM came out at 104%. Besides, the viability at 0.272 µM in the data set with Pfeiffer cells (272 nM Compound A) is 99%. For the same molecule, the viability at 0.695 µM in the data set with Pfeiffer cells (695 nM Compound A) amounted to 73%.
With `C[C@H](Nc1ncnc2[nH]cnc12)c1nc2ccc(F)cc2c(=O)n1-c1ccccc1` [Compound C, (S)-2-(1-((9H-purin-6-yl)amino)ethyl)-6-fluoro-3-phenylquinazolin-4(3H)-one], the “percentage of p-AKT (pAKT)” value in the data set with p-AKT Ser473 (setting [1]) turned out to be 89%; in the data set with p-AKT Ser473 (setting [2]), 88%; with p-AKT Ser473 (setting [3]) it was 65%; in the data set with p-AKT Ser473 (setting [4]), 65%; in the data set with p-AKT Ser473 (setting [5]), 82%; in the data set on p-AKT Ser473 (setting [6]) it was 90%. Besides, the “percentage of p-AKT (pAKT)” value is on record as 59% in the data set with p-AKT Ser473 (setting [7]); 53% in the data set with p-AKT Ser473 (setting [8]); 75% with p-AKT Ser473 (setting [9]); 75% in the data set with p-AKT Ser473 (setting [10]); 43% in the data set with p-AKT Ser473 (setting [11]); 24% with p-AKT Ser473 (setting [12]). Moreover, the “percentage of p-S6RP (pS6)” value with pS6RP Ser235/236 (setting [1]) was determined as 82%; in the data set on pS6RP Ser235/236 (setting [2]), 65%; in the data set on pS6RP Ser235/236 (setting [3]), 66%; in the data set with pS6RP Ser235/236 (setting [4]), 84%; with pS6RP Ser235/236 (setting [5]), 75%; in the data set on pS6RP Ser235/236 (setting [6]), 59%. The “percentage of p-S6RP (pS6)” value in the data set on pS6RP Ser235/236 (setting [7]) was 70%; with pS6RP Ser235/236 (setting [8]), 62%; in the data set with pS6RP Ser235/236 (setting [9]), 53%; in the data set on pS6RP Ser235/236 (setting [10]), 43%; in the data set on pS6RP Ser235/236 (setting [11]), 36%; with pS6RP Ser235/236 (setting [12]), 42%.
On to `N#Cc1c(N)nc(N)nc1N[C@H](c1nc2c(F)ccc(Cl)c2c(=O)n1-c1cccnc1)C1CC1` [Compound D, (S)-2,4-diamino-6-(((5-chloro-8-fluoro-4-oxo-3-(pyridine-3-yl)-3,4-dihydroquinazolin-2-yl)(cyclopropyl)methyl)amino)pyrimidine-5-carbonitrile], for which the “percentage of p-AKT (pAKT)” value in the data set with p-AKT Ser473 (setting [1]) was 87%; in the data set on p-AKT Ser473 (setting [2]) it was 83%; in the data set with p-AKT Ser473 (setting [3]) it was 49%; in the data set with p-AKT Ser473 (setting [4]), 58%; with p-AKT Ser473 (setting [5]), 57%; with p-AKT Ser473 (setting [6]), 85%. The “percentage of p-AKT (pAKT)” value was found to be 41% in the data set on p-AKT Ser473 (setting [7]); 50% with p-AKT Ser473 (setting [8]); 60% in the data set on p-AKT Ser473 (setting [9]); 76% with p-AKT Ser473 (setting [10]); 19% with p-AKT Ser473 (setting [11]); 39% with p-AKT Ser473 (setting [12]). For the same molecule, the “percentage of p-S6RP (pS6)” value turned out to be 58% with pS6RP Ser235/236 (setting [1]); 58% in the data set with pS6RP Ser235/236 (setting [2]); 74% with pS6RP Ser235/236 (setting [3]); 48% with pS6RP Ser235/236 (setting [4]); 48% with pS6RP Ser235/236 (setting [5]); 50% in the data set with pS6RP Ser235/236 (setting [6]). Besides, the “percentage of p-S6RP (pS6)” value in the data set with pS6RP Ser235/236 (setting [7]) turned out to be 55%; in the data set with pS6RP Ser235/236 (setting [8]), 39%; in the data set with pS6RP Ser235/236 (setting [9]) it was 18%; with pS6RP Ser235/236 (setting [10]) it was 39%; in the data set on pS6RP Ser235/236 (setting [11]), 25%; in the data set on pS6RP Ser235/236 (setting [12]), 19%.
`N#CC[C@H](C1CCCC1)n1cc(-c2ncnc3[nH]ccc23)cn1` [ruxolitinib, reference compound]: the “in vitro dose corresponding to the Cmin” value in “clinical” was found to be 1 nM. Moreover, the concentration in “clinical” (15 mg) peaked (Cmax) at 20 nM. Besides, the inhibition at 0.02 µM with p-S6RP (Homo sapiens, ruxolitinib 20 nM alone, TPO-stimulated cells, read-out: p-S6RP levels inhibited or reduced by) stood at 69%. Further, the pS6RP levels inhibited result in the data set on p-S6RP (ruxolitinib 1 nM alone, TPO-stimulated cells) is given as “not inhibited”. Also, the “percentage of the p-S6RP levels” value in the data set with p-S6RP (ruxolitinib 1 nM) is 101% and 78% and 92% and 129% and 75%; in the data set with p-S6RP (ruxolitinib 20 nM) it was 42% and 25% and 22% and 34% and 28%. Also, the “percentage of the p-STAT5 levels” value with p-STAT5 (ruxolitinib 1 nM) is 83% and 94% and 97% and 68% and 91%; with p-STAT5 (ruxolitinib 20 nM), 77% and 63% and 74% and 71% and 62%.
As to “IL6: interleukin 6 (IL6) used to activate STAT3 in Pfeiffer cells”, the “increase of pSTAT3 levels (STAT3 activation)” value with pSTAT3 (Tyr705) (1 ng/mL IL6, 4 h) came out at 2.8 fold; in the data set with pSTAT3 (Tyr705) (3 ng/mL IL6, 4 h), 3.8 fold; with pSTAT3 (Tyr705) (10 ng/mL IL6, 4 h), 2.5 fold.

Usually Cmax stands for the maximum level reached in the sampled fluid or tissue.

The values are drawn from US20160279135A1, “THERAPIES FOR TREATING MYELOPROLIFERATIVE DISORDERS” (Gilead Sciences, Inc., priority 2013, published 2016).
